Experimental data as given in patent EP0491441A1, “Fungicidal isoquinoline derivatives” (SHELL INTERNATIONALE RESEARCH MAATSCHAPPIJ B.V., priority 1990, dated 1992).

Experiments:
Assay type in all cases: in vivo
powdery mildew in wheat [1] = assay: Residual (R) activity against powdery mildew in wheat; details: Triticum aestivum, concentration 400 ppm
Protocol: (§1) In further tests, the residual (R) and curative (C) activities of various compounds against powdery mildew in barley and wheat was determined at various concentrations of the test compounds.

powdery mildew in barley [2] = assay: Curative (C) activity against powdery mildew in barley; details: Hordeum vulgare, concentration 100 ppm
Protocol: as §1

powdery mildew in barley [3] = assay: Residual (R) activity against powdery mildew in barley; details: Hordeum vulgare
Protocol: as §1

powdery mildew in wheat [4] = assay: Curative (C) activity against powdery mildew in wheat; details: Triticum aestivum, concentration 400 ppm
Protocol: as §1

| SMILES | activity at 400 ppm (powdery mildew in wheat [1]) [%] | activity at 100 ppm (powdery mildew in barley [2]) [%] | activity at 400 ppm (powdery mildew in barley [3]; concentration 400 ppm) [%] | activity at 400 ppm (powdery mildew in wheat [4]) [%] | activity at 100 ppm (powdery mildew in barley [3]; concentration 100 ppm) [%] |
| --- | --- | --- | --- | --- | --- |
| CCCOc1cc2c(cc1OCC)CC[N+]([O-])=C2c1ccccc1[N+](=O)[O-] [Example 7, 1-(2-nitrophenyl)-3,4-dihydro-6-ethoxy-7-propoxyisoquinoline-N-oxide] | 94 | 100 | 75 | 23 |  |
| CCCOc1cc2c(-c3c(Cl)cccc3Cl)[n+]([O-])ccc2cc1OCC [Example 6, 1-(2,6-Dichlorophenyl)-6-ethoxy-7-propoxyisoquinoline N-oxide] | 98.8 | 100 |  | 68.5 | 100 |
